# PMC11436758, “Computer-aided drug design to generate a unique antibiotic family” (Nature Communications, 2024)
# Columns and labels:
# Assay type in all cases: cell-based
# S. aureus (MSSA) = assay: MIC, clinical and laboratory strains
# Procedure: (§1) The medium employed for the assay was Mueller Hinton II Broth (MHB II; Becton-Dickinson, Sparks, MD, USA). Agar plates used for the organisms were trypticase soy agar plus 5% sheep blood (BD; Sparks, MD, USA). MIC assay plates were prepared using the CLSI broth microdilution procedure. Automated liquid handlers (Multidrop 384, Biomek 2000 and Biomek FX) were used to conduct serial dilutions and liquid transfers. A standardized inoculum of each organism was prepared per CLSI methods. Suspensions were prepared to equal a 0.5 McFarland standard, followed by a 1:20 dilution in test media. The inocula were dispensed into sterile reservoirs divided by length (Beckman Colter) and the Biomek 2000 was used to inoculate the plates. Daughter plates were placed on the Biomek 2000 work surface in reverse orientation so that inoculation took place from low to high drug concentration. The Biomek 2000 delivered 10 μL of the diluted suspension into each well. These inoculations yielded a final cell concentration in the daughter plates of ~5 × 10^5 colony-forming units/mL in each well. The wells of the daughter plates ultimately contained 185 μL of broth, 5 μL of drug solution, and 10 μL of bacterial inoculum. Plates were covered with a sterile lid on the top plate, placed in plastic bags, and incubated at 35 °C for ~18 h. The microplates were viewed from the bottom using a plate viewer and the MIC was read. The MIC was recorded as the lowest concentration of drug that inhibited visible growth of the organism.
# S. aureus (VISA) = assay: MIC, clinical and laboratory strains
# Procedure: as §1
# S. aureus (MRSA) = assay: MIC, clinical and laboratory strains
# Procedure: as §1
# [1] = test system: 102 ATCC strains and clinical isolates of Staphylococcus, Streptomyces, and Enterococcus; assay: MIC panel summary over all strains; settings: of 102 strains
# Procedure: We also sought to determine if DNM0547 was bacteriostatic or bactericidal. Time kill experiments were carried out using increasing doses of DNM0547 against two different strains of MRSA.
# as §1
smiles,measurement,setting,value
CN[C@H](CC(C)C)C(=O)N[C@H]1C(=O)N[C@@H](CC(N)=O)C(=O)N[C@H]2C(=O)N[C@H]3C(=O)N[C@H](C(=O)N[C@H](C(=O)O)c4cc(O)cc(O)c4-c4cc3ccc4O)[C@H](O)c3ccc(c(Cl)c3)Oc3cc2cc(c3O[C@@H]2O[C@H](CO)[C@@H](O)[C@H](O)[C@H]2O[C@H]2C[C@](C)(N)[C@H](O)[C@H](C)O2)Oc2ccc(cc2Cl)[C@H]1O [vancomycin],MIC,S. aureus (MSSA); S. aureus (MSSA) 2127,1 µg/mL
same,MIC,S. aureus (MSSA); S. aureus (MSSA) 6167,0.5 µg/mL
same,MIC,S. aureus (MSSA); S. aureus (MSSA) 6168,0.5 µg/mL
same,MIC,S. aureus (MSSA); S. aureus (MSSA) 6170,0.5 µg/mL
same,MIC,S. aureus (MSSA); S. aureus (MSSA) 6316,1 µg/mL
same,MIC,S. aureus (MSSA); S. aureus (MSSA) 6317,0.5 µg/mL
same,MIC,S. aureus (MSSA); S. aureus (MSSA) 6318,0.5 µg/mL
same,MIC,S. aureus (MSSA); S. aureus (MSSA) 6499,0.5 µg/mL
same,MIC,S. aureus (MSSA); S. aureus (MSSA) 6500,0.5 µg/mL
same,MIC,S. aureus (MSSA); S. aureus (MSSA) 6502,0.5 µg/mL
same,MIC,S. aureus (VISA); S. aureus (VISA) 1724,4 µg/mL
same,MIC,S. aureus (VISA); S. aureus (VISA) 2012,8 µg/mL
same,MIC,S. aureus (VISA); S. aureus (VISA) 2013,4 µg/mL
same,MIC,S. aureus (VISA); S. aureus (VISA) 2014,4 µg/mL
same,MIC,S. aureus (VISA); S. aureus (VISA) 2015,4 µg/mL
same,MIC,S. aureus (VISA); S. aureus (VISA) 2016,4 µg/mL
same,MIC,S. aureus (VISA); S. aureus (VISA) 2017,8 µg/mL
same,MIC,S. aureus (VISA); S. aureus (VISA) 2018,4 µg/mL
same,MIC,S. aureus (VISA); S. aureus (VISA) 2019,4 µg/mL
same,MIC,S. aureus (VISA); S. aureus (VISA) 2123,8 µg/mL
same,MIC,S. aureus (VISA); S. aureus (VISA) NRS1/1723,8 µg/mL
same,MIC,S. aureus (MRSA); S. aureus (MRSA) 2167,0.5 µg/mL
same,MIC,S. aureus (MRSA); S. aureus (MRSA) 2168,0.5 µg/mL
same,MIC,S. aureus (MRSA); S. aureus (MRSA) 2169,1 µg/mL
same,MIC,S. aureus (MRSA); S. aureus (MRSA) 2170,0.5 µg/mL
same,MIC,S. aureus (MRSA); S. aureus (MRSA) 2171,0.5 µg/mL
same,MIC,S. aureus (MRSA); S. aureus (MRSA) 2293,0.5 µg/mL
same,MIC,S. aureus (MRSA); S. aureus (MRSA) 2294,0.5 µg/mL
same,MIC,S. aureus (MRSA); S. aureus (MRSA) 2295,0.5 µg/mL
same,MIC,S. aureus (MRSA); S. aureus (MRSA) 2296,0.5 µg/mL
same,MIC,S. aureus (MRSA); S. aureus (MRSA) 2297,1 µg/mL
same,MIC,S. aureus (MRSA); S. aureus (MRSA) 3880,0.5 µg/mL
same,MIC,S. aureus (MRSA); S. aureus (MRSA) 5373,0.5 µg/mL
same,MIC,S. aureus (MRSA); S. aureus (MRSA) 5666,0.5 µg/mL
same,MIC,S. aureus (MRSA); S. aureus (MRSA) 5702,0.5 µg/mL
same,MIC,S. aureus (MRSA); S. aureus (MRSA) 5999,0.5 µg/mL
same,MIC,S. aureus (MRSA); S. aureus (MRSA) 6165,1 µg/mL
same,MIC,S. aureus (MRSA); S. aureus (MRSA) 6169,0.5 µg/mL
same,MIC,S. aureus (MRSA); S. aureus (MRSA) 6174,0.5 µg/mL
same,MIC,S. aureus (MRSA); S. aureus (MRSA) 6311,1 µg/mL
same,MIC,S. aureus (MRSA); S. aureus (MRSA) 6312,0.5 µg/mL
same,MIC,S. aureus (MRSA); S. aureus (MRSA) 6313,0.5 µg/mL
same,MIC,S. aureus (MRSA); S. aureus (MRSA) 6315,1 µg/mL
same,MIC,S. aureus (MRSA); S. aureus (MRSA) 6320,1 µg/mL
same,MIC,S. aureus (MRSA); S. aureus (MRSA) 6498,0.5 µg/mL
same,MIC,S. aureus (MRSA); S. aureus (MRSA) 6501,0.5 µg/mL
same,MIC,S. aureus (MRSA); S. aureus (MRSA) 6505,0.5 µg/mL
same,MIC,S. aureus (MRSA); S. aureus (MRSA) 6506,0.5 µg/mL
same,MIC,S. aureus (MRSA); S. aureus (MRSA) NRS382/2119,1 µg/mL
same,MIC,S. aureus (MRSA); S. aureus (MRSA) NRS383/2120,0.5 µg/mL
same,MIC,S. aureus (MRSA); S. aureus (MRSA) NRS384/2011,0.5 µg/mL
same,number of strains tested with MIC not ≤ 2 μg/mL,[1],37
